Read-outs that look alike come from different tables or passages of the source.
Assays:
LogP = format: physicochemical; details: called measured values of LogP
Experimental: All experimental data were analyzed using Prism software (version 5.0, Graphpad Software, San Diego, Calif.). In addition, tPSA (Topological Polar Surface Area) calculated using Chemdraw software and the measured values of LogP are shown in Tables 1 and 2 below.

H1975 = experiment: MTS cell proliferation / survival assay; format: cell-based; details: Homo sapiens; for inhibition at 10 µM: NCI-H1975, read-out: Inhibition rate at 10 μM (%); for inhibition at 30 µM: NCI-H1975, read-out: Inhibition rate at 30 μM (%)
Experimental: Sk-Br3 (Korean cell line bank), a breast cancer cell, and H1975 cell (ATCC), a nonsmall cell lung cancer, were cultured in RPMI 1640 containing 25 mM HEPES (4-(2-hydroxyethyl)-1-piperazineethanesulfonic acid) and RPMI 1640 containing L-glutamine (containing streptomycin ([…]), penicillin (100 units/mL) and 10% fetal bovine serum (FBS)).
The cells were cultured under a humidified atmosphere of 37° C. and 5% CO2.
Next, non-metastatic lung cancer cells were treated with Compound 17 and the cell proliferation rate or cell survival rate was measured by MTS [3-(4,5-dimethylthiazol-2-yl)-5-(3-carboxymethoxyphenyl)-2-2H-tetrazolium, inner salt] analysis.
Cells were dispensed in 96-well plates at 3000 cell/well (Sk-Br3) and 2000 cell/well (H1975), and 100 μL of the medium was added per well and then was incubated overnight.
Cell proliferation was evaluated using the Promega Cell Titer 96 Aqueous One Solution cell proliferation assay.
After compound and cell culture, 20 μL of assay substrate solution was added to each well and incubated at 37° C. for an additional 1 hour.
Cell proliferation was confirmed by measuring the absorbance at 490 nm using a microplate reader (Tecan Infinite F200 Proplate reader).

H1975 cells = experiment: MTS cell viability in H1975 cells resistant to Gefitinib; format: cell-based; details: read-out: H1975 (EC50; μM)
Experimental: To confirm the cell viability according to the concentration of the compound synthesized in H1975 cells (ATCC) resistant to Gefitinib, MTS [3-(4,5-dimethylthiazol-2-yl)-5-[…]carboxymethoxyphenyl)-2-(4-sulfophenyl)-2H-tetrazolium, inner salt] analysis was performed. When the cells were cultured so as to occupy 80% of the bottom of the culture dish, the cells were detached and diluted with RPMI 1640 medium to a concentration of 1.5×10^3 cells/well. Each 100 μL of the suspension was added to each well of a 96-well plate and cultured for 14 hours. Then, the medium was changed to the culture solution treated with compound of each concentration each concentration (1a-g: 0, 1, 5, 10, 30, 50 or 100 μM, 14a-I, 16a, b, 21a-f: 0, 0.01, 0.1, 1, 5, 10, 30, 50, 70 or 100 μM), and cultured for 3 days. Each 20 μL of the MTS solution was dispensed into each well and reacted for 1 hour at 37° C. in an incubator supplied with 5% CO2.

HSP90α = HSP90α (Homo sapiens (Human), UniProt P07900); experiment: Fluorescence polarization assay, binding ability to HSP90, benzamide compounds; details: GA-FITC 100 nM; read-out: HSP90 FP) (IC50; nM)
Experimental: 1 M dithiothreitol (DTT), 10 mg/m: BGG (bovine gamma globulin) were added to hexafluorobenzene (HFB) buffer (20 mM HEPES pH 7.3, 50 mM KCl, 5 mM MgCl2, 20 mM Na2MoO4, 0.01% NP4O, 3rd distilled water) and mixed. Then, 100 nM […] (GA)-FITC (Fluorescein isothiocyanate) was added and reacted at room temperature for 10 minutes. Each 100 μL of the mixture was dispensed into the control wells of a 96-well plate, 2 μL of HSP90α was added to the remaining mixture, and each 100 μL of the other wells was dispensed. […] The binding ability of the compound to HSP90 was expressed as mP (millipolarization unit=1000 mP unit).

Row | SMILES | logP (LogP) | EC50 (H1975 cells; Homo sapiens, NCI-H1975, 72 h) [µM] | IC50 (HSP90α) [nM] | other results
1 | O=C(c1cc(Cl)c(O)cc1O)N1CCCC1 [Compound 11a, (5-chloro-2,4-dihydroxyphenyl) (pyrrolidin-1-yl)methanone] | 1.13 | – | – | inhibition at 10 µM (H1975): 8.1%; inhibition at 30 µM (H1975): 22.1%
2 | CC(C)c1cc(C(=O)N(C)Cc2ccccc2)c(O)cc1O [Compound 21g, N-benzyl-2,4-dihydroxy-5-isopropyl-N-methylbenzamide] | – | 4.1 | – | –
3 | O=C1CCN(C(=O)c2cc(Cl)c(O)cc2O)C1 [Compound 11h, 1-(5-chloro-2,4-dihydroxybenzoyl) pyrrolidin-3-one] | 0.84 | – | – | inhibition at 10 µM (H1975): 0%; inhibition at 30 µM (H1975): 0%
4 | CCNC(=O)c1ccc(CN(C)C(=O)c2cc(Cl)c(O)cc2O)cc1 [Compound 21b, 5-chloro-N-(4-(ethylcarbamoyl)benzyl)-2,4-dihydroxy-N-methylbenzamide] | – | 21.7 | 612 | –
5 | CC(=O)N1CCN(C(=O)c2cc(Cl)c(O)cc2O)CC1 [Compound 11f, 1-(4-(5-chloro-2,4-dihydroxybenzoyl)piperazin-1-yl)ethanone] | 0.25 | – | – | inhibition at 10 µM (H1975): 0%; inhibition at 30 µM (H1975): 10.5%
6 | O=C(c1cc(Cl)c(O)cc1O)N1CCCCC1 [Compound 11b, (5-chloro-2,4-dihydroxyphenyl) (piperidin-1-yl)methanone] | 1.69 | – | – | inhibition at 10 µM (H1975): 7.6%; inhibition at 30 µM (H1975): 26.3%
7 | COc1ccc(CN(C)C(=O)c2cc(Cl)c(O)cc2O)cc1 [Compound 14c, 5-chloro-2,4-dihydroxy-N-(4-methoxybenzyl)-N-methylbenzamide] | – | 16.7 | 135 | –
8 | CNC(=O)c1ccc(CN(C)C(=O)c2cc(C(C)C)c(O)cc2O)cc1 [Compound 21d, 2,4-dihydroxy-5-isopropyl-N-methyl-N-(4-(methylcarbamoyl)benzyl) benzamide] | – | – | 11.4 | EC50 (H1975 cells; H1975, 3 days): 0.83 µM
9 | CN(Cc1ccccc1)C(=O)c1cc(Cl)c(O)cc1O [Compound 14b, N-Benzyl-5-chloro-2,4-dihydroxy-N-methylbenzamide] | – | 35.5 | 413 | –
10 | O=C(c1cc(Cl)c(O)cc1O)N1CCNCC1 [Compound 11d, (5-chloro-2,4-dihydroxyphenyl) (piperazin-1-yl)methanone] | 0.65 | – | – | inhibition at 10 µM (H1975): 0%; inhibition at 30 µM (H1975): 0%
11 | Cc1ccccc1CN(C)C(=O)c1cc(Cl)c(O)cc1O [Compound 16a, 5-chloro-2,4-dihydroxy-N-methyl-N-(2-methylbenzyl)benzamide] | – | 49.3 | – | –
12 | CN1CCN(C(=O)c2cc(Cl)c(O)cc2O)CC1 [Compound 11e, (5-chloro-2,4-dihydroxyphenyl)(4-methylpiperazin-1-yl)methanone] | 1.23 | – | – | inhibition at 10 µM (H1975): 26.3%; inhibition at 30 µM (H1975): 48.7%
13 | O=C(c1cc(Cl)c(O)cc1O)N1CCOCC1 [Compound 11c, (5-chloro-2,4-dihydroxyphenyl) (morpholino)methanone] | 0.66 | – | – | inhibition at 10 µM (H1975): 24.3%; inhibition at 30 µM (H1975): 44%
14 | O=C(NCc1ccccc1)c1cc(Cl)c(O)cc1O [Compound 14a, N-Benzyl-5-chloro-2,4-dihydroxybenzamide] | – | 86.2 | – | –
15 | COc1cc(CN(C)C(=O)c2cc(Cl)c(O)cc2O)c(Cl)c(OC)c1OC [Compound 14g, 5-chloro-N-(2-chloro-3,4,5-trimethoxybenzyl)-2,4-dihydroxy-N-methylbenzamide] | – | 33.8 | 429 | –
16 | CNC(=O)c1ccc(CN(C)C(=O)c2cc(Cl)c(O)cc2O)cc1 [Compound 21a, 5-chloro-2,4-dihydroxy-N-methyl-N-(4-(methylcarbamoyl)benzyl) benzamide] | – | – | 496 | EC50 (H1975 cells; H1975, 3 days): 34.8 µM
17 | Cc1ccc(CN(C)C(=O)c2cc(Cl)c(O)cc2O)cc1 [Compound 16b, 5-chloro-2,4-dihydroxy-N-methyl-N-(4-methylbenzyl)benzamide] | – | 34.3 | 558 | –
18 | CCNC(=O)c1ccc(CN(C)C(=O)c2cc(C(C)C)c(O)cc2O)cc1 [Compound 21e, N-(4-(ethylcarbamoyl)benzyl)-2,4-dihydroxy-5-isopropyl-N-methylbenzamide] | – | 0.46 | 6.5 | –
19 | O=C1CCN(C(=O)c2cc(Cl)c(O)cc2O)CC1 [Compound 11i, 1-(5-chloro-2,4-dihydroxybenzoyl)piperidin-4-one] | 0.6 | – | – | –
20 | COc1cc(CN(C)C(=O)c2cc(Cl)c(O)cc2O)c(Br)c(OC)c1OC [Compound 14h, N-(2-bromo-3,4,5-trimethoxybenzyl)-5-chloro-2,4-dihydroxy-N-methylbenzamide] | – | 34.3 | 528 | –
21 | Cc1cccc(CN(C)C(=O)c2cc(Cl)c(O)cc2O)c1 [Compound 14i, 5-chloro-2,4-dihydroxy-N-methyl-N-(3-methylbenzyl)benzamide] | – | 47.5 | – | –
22 | CCCNC(=O)c1ccc(CN(C)C(=O)c2cc(Cl)c(O)cc2O)cc1 [Compound 21c, 5-chloro-2,4-dihydroxy-N-methyl-N-(4-(propylcarbamoyl)benzyl)benzamide] | – | 20.8 | 454 | –
23 | CN1CCN(C(=O)c2cc(Cl)c(O)cc2O)C(c2ccccc2)C1 (centres unmarked) [Compound 11j, (5-chloro-2,4-dihydroxyphenyl)(4-methyl-2-phenylpiperazin-1-yl)methanone] | 3.22 | – | – | –
24 | CN(Cc1ccc2c(c1)OCO2)C(=O)c1cc(Cl)c(O)cc1O [Compound 14e, N-(benzo[d][1,3]dioxol-5-ylmethyl)-5-chloro-2,4-dihydroxy-N-methylbenzamide] | – | 103 | 585 | –
25 | COc1ccc(CN(C)C(=O)c2cc(Cl)c(O)cc2O)cc1OC [Compound 14d, 5-chloro-N-(3,4-dimethoxybenzyl)-2,4-dihydroxy-N-methylbenzamide] | – | 33.4 | 362 | –
26 | COc1cc(CN(C)C(=O)c2cc(Cl)c(O)cc2O)cc(OC)c1OC [Compound 14f, 5-chloro-2,4-dihydroxy-N-methyl-N-(3,4,5-trimethoxybenzyl) benzamide] | – | – | 1460 | EC50 (H1975 cells; H1975, 3 days): 73.1 µM
27 | O=C1CN(C(=O)c2cc(Cl)c(O)cc2O)CCN1 [Compound 11g, 4-(5-chloro-2,4-dihydroxybenzoyl)piperazin-2-one] | 0.45 | – | – | inhibition at 10 µM (H1975): 0%; inhibition at 30 µM (H1975): 0%
